Test results published in the supplement of paper PMC8612539.
Converted amounts (≈) assume the structure as drawn.

Test system: Histophilus somni
Assay: minimum inhibitory concentration (MIC)
Procedure: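 Broth microdilution MIC (Sensititre BOPO7F bovine plate, CLSI methods) of 19 antimicrobials against field isolates of P. multocida, M. haemolytica, H. somni (deep nasopharyngeal swabs) and E. coli, Enterococcus spp. (rectal swabs) from weaned dairy heifers. Incubation 16-24 h at 35 C. MIC is the lowest concentration preventing visible growth. Values with <= or > lie at the tested range limits. Trimethoprim-sulfamethoxazole is given as the trimethoprim component of a 1:19 mixture.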

NC[C@@H]1O[C@H](O[C@H]2[C@@H](O)[C@H](O[C@@H]3[C@@H](O)[C@H](N)C[C@H](N)[C@H]3O[C@H]3O[C@H](CN)[C@@H](O)[C@H](O)[C@H]3N)O[C@@H]2CO)[C@H](N)[C@@H](O)[C@@H]1O [Neomycin]
Settings	minimum inhibitory concentration [µg/mL]
isolate (source animal id): 3	32 (≈ 52.1 µM)
isolate (source animal id): 4	32 (≈ 52.1 µM)
isolate (source animal id): 7	16 (≈ 26 µM)
isolate (source animal id): 14	16 (≈ 26 µM)
isolate (source animal id): 15	32 (≈ 52.1 µM)
isolate (source animal id): 17	16 (≈ 26 µM)
isolate (source animal id): 18	32 (≈ 52.1 µM)
isolate (source animal id): 20	≤ 4
isolate (source animal id): 23	32 (≈ 52.1 µM)
isolate (source animal id): 45	32 (≈ 52.1 µM)
isolate (source animal id): 53	32 (≈ 52.1 µM)
isolate (source animal id): 83	32 (≈ 52.1 µM)
isolate (source animal id): 88	32 (≈ 52.1 µM)
isolate (source animal id): 92	> 32
isolate (source animal id): 93	8 (≈ 13 µM)
isolate (source animal id): 99	> 32
isolate (source animal id): 100	> 32
isolate (source animal id): 105	32 (≈ 52.1 µM)
isolate (source animal id): 107	> 32
isolate (source animal id): 108	> 32
isolate (source animal id): 109	> 32
isolate (source animal id): 110	> 32
isolate (source animal id): 117	16 (≈ 26 µM)
isolate (source animal id): 121	16 (≈ 26 µM)
isolate (source animal id): 123	32 (≈ 52.1 µM)
isolate (source animal id): 124	32 (≈ 52.1 µM)
isolate (source animal id): 127	32 (≈ 52.1 µM)
isolate (source animal id): 128	16 (≈ 26 µM)
isolate (source animal id): 130	16 (≈ 26 µM)
isolate (source animal id): 132	16 (≈ 26 µM)
isolate (source animal id): 135	16 (≈ 26 µM)
isolate (source animal id): 140	16 (≈ 26 µM)
isolate (source animal id): 141	16 (≈ 26 µM)
isolate (source animal id): 142	> 32
isolate (source animal id): 144	> 32
isolate (source animal id): 146	> 32
isolate (source animal id): 147	> 32
isolate (source animal id): 151	32 (≈ 52.1 µM)
isolate (source animal id): 153	> 32
isolate (source animal id): 154	> 32
isolate (source animal id): 156	32 (≈ 52.1 µM)
isolate (source animal id): 157	> 32
isolate (source animal id): 176	32 (≈ 52.1 µM)
isolate (source animal id): 183	32 (≈ 52.1 µM)
isolate (source animal id): 186	> 32
isolate (source animal id): 196	> 32
isolate (source animal id): 198	> 32
isolate (source animal id): 200	> 32
isolate (source animal id): 206	> 32
isolate (source animal id): 208	> 32
isolate (source animal id): 210	> 32
isolate (source animal id): 212	32 (≈ 52.1 µM)
isolate (source animal id): 215	> 32
isolate (source animal id): 216	> 32
isolate (source animal id): 218	> 32
isolate (source animal id): 219	> 32
isolate (source animal id): 224	> 32
isolate (source animal id): 228	32 (≈ 52.1 µM)
isolate (source animal id): 230	32 (≈ 52.1 µM)
isolate (source animal id): 233	> 32
isolate (source animal id): 238	16 (≈ 26 µM)
isolate (source animal id): 239	32 (≈ 52.1 µM)
isolate (source animal id): 241	32 (≈ 52.1 µM)
isolate (source animal id): 242	32 (≈ 52.1 µM)
isolate (source animal id): 243	32 (≈ 52.1 µM)
isolate (source animal id): 245	> 32
isolate (source animal id): 246	32 (≈ 52.1 µM)
isolate (source animal id): 247	32 (≈ 52.1 µM)
isolate (source animal id): 248	≤ 4
isolate (source animal id): 250	32 (≈ 52.1 µM)
isolate (source animal id): 251	32 (≈ 52.1 µM)
isolate (source animal id): 252	32 (≈ 52.1 µM)
isolate (source animal id): 254	32 (≈ 52.1 µM)
isolate (source animal id): 258	> 32
isolate (source animal id): 259	> 32
isolate (source animal id): 262	32 (≈ 52.1 µM)
isolate (source animal id): 264	8 (≈ 13 µM)
isolate (source animal id): 265	> 32
isolate (source animal id): 266	> 32
isolate (source animal id): 267	> 32
isolate (source animal id): 269	> 32
isolate (source animal id): 271	> 32
isolate (source animal id): 272	> 32
isolate (source animal id): 274	32 (≈ 52.1 µM)
isolate (source animal id): 276	≤ 4
isolate (source animal id): 278	> 32
isolate (source animal id): 280	> 32
isolate (source animal id): 281	> 32
isolate (source animal id): 283	> 32
isolate (source animal id): 288	> 32
isolate (source animal id): 291	32 (≈ 52.1 µM)
isolate (source animal id): 292	> 32
isolate (source animal id): 296	> 32
isolate (source animal id): 306	> 32
isolate (source animal id): 336	> 32
isolate (source animal id): 337	> 32
isolate (source animal id): 341	> 32

CN(C)[C@@H]1C(O)=C(C(N)=O)C(=O)[C@@]2(O)C(O)=C3C(=O)c4c(O)cccc4[C@@](C)(O)[C@H]3C[C@@H]12 [Tetracycline]
Settings	minimum inhibitory concentration [µg/mL]
isolate (source animal id): 3	4 (≈ 9 µM)
isolate (source animal id): 4	4 (≈ 9 µM)
isolate (source animal id): 7	8 (≈ 18 µM)
isolate (source animal id): 14	8 (≈ 18 µM)
isolate (source animal id): 15	4 (≈ 9 µM)
isolate (source animal id): 17	8 (≈ 18 µM)
isolate (source animal id): 18	8 (≈ 18 µM)
isolate (source animal id): 20	4 (≈ 9 µM)
isolate (source animal id): 23	≤ 0.5
isolate (source animal id): 45	> 8
isolate (source animal id): 53	> 8
isolate (source animal id): 83	2 (≈ 4.5 µM)
isolate (source animal id): 88	8 (≈ 18 µM)
isolate (source animal id): 92	8 (≈ 18 µM)
isolate (source animal id): 93	8 (≈ 18 µM)
isolate (source animal id): 99	4 (≈ 9 µM)
isolate (source animal id): 100	4 (≈ 9 µM)
isolate (source animal id): 105	2 (≈ 4.5 µM)
isolate (source animal id): 107	4 (≈ 9 µM)
isolate (source animal id): 108	8 (≈ 18 µM)
isolate (source animal id): 109	4 (≈ 9 µM)
isolate (source animal id): 110	4 (≈ 9 µM)
isolate (source animal id): 117	8 (≈ 18 µM)
isolate (source animal id): 121	8 (≈ 18 µM)
isolate (source animal id): 123	4 (≈ 9 µM)
isolate (source animal id): 124	2 (≈ 4.5 µM)
isolate (source animal id): 127	1 (≈ 2.25 µM)
isolate (source animal id): 128	> 8
isolate (source animal id): 130	2 (≈ 4.5 µM)
isolate (source animal id): 132	> 8
isolate (source animal id): 135	> 8
isolate (source animal id): 140	> 8
isolate (source animal id): 141	≤ 0.5
isolate (source animal id): 142	1 (≈ 2.25 µM)
isolate (source animal id): 144	2 (≈ 4.5 µM)
isolate (source animal id): 146	> 8
isolate (source animal id): 147	1 (≈ 2.25 µM)
isolate (source animal id): 151	> 8
isolate (source animal id): 153	4 (≈ 9 µM)
isolate (source animal id): 154	1 (≈ 2.25 µM)
isolate (source animal id): 156	2 (≈ 4.5 µM)
isolate (source animal id): 157	4 (≈ 9 µM)
isolate (source animal id): 176	4 (≈ 9 µM)
isolate (source animal id): 183	4 (≈ 9 µM)
isolate (source animal id): 186	4 (≈ 9 µM)
isolate (source animal id): 196	4 (≈ 9 µM)
isolate (source animal id): 198	2 (≈ 4.5 µM)
isolate (source animal id): 200	4 (≈ 9 µM)
isolate (source animal id): 206	4 (≈ 9 µM)
isolate (source animal id): 208	4 (≈ 9 µM)
isolate (source animal id): 210	1 (≈ 2.25 µM)
isolate (source animal id): 212	1 (≈ 2.25 µM)
isolate (source animal id): 215	4 (≈ 9 µM)
isolate (source animal id): 216	4 (≈ 9 µM)
isolate (source animal id): 218	2 (≈ 4.5 µM)
isolate (source animal id): 219	2 (≈ 4.5 µM)
isolate (source animal id): 224	4 (≈ 9 µM)
isolate (source animal id): 228	8 (≈ 18 µM)
isolate (source animal id): 230	4 (≈ 9 µM)
isolate (source animal id): 233	> 8
isolate (source animal id): 238	≤ 0.5
isolate (source animal id): 239	> 8
isolate (source animal id): 241	4 (≈ 9 µM)
isolate (source animal id): 242	4 (≈ 9 µM)
isolate (source animal id): 243	≤ 0.5
isolate (source animal id): 245	> 8
isolate (source animal id): 246	≤ 0.5
isolate (source animal id): 247	4 (≈ 9 µM)
isolate (source animal id): 248	≤ 0.5
isolate (source animal id): 250	8 (≈ 18 µM)
isolate (source animal id): 251	> 8
isolate (source animal id): 252	4 (≈ 9 µM)
isolate (source animal id): 254	4 (≈ 9 µM)
isolate (source animal id): 258	4 (≈ 9 µM)
isolate (source animal id): 259	4 (≈ 9 µM)
isolate (source animal id): 262	> 8
isolate (source animal id): 264	1 (≈ 2.25 µM)
isolate (source animal id): 265	> 8
isolate (source animal id): 266	2 (≈ 4.5 µM)
isolate (source animal id): 267	2 (≈ 4.5 µM)
isolate (source animal id): 269	1 (≈ 2.25 µM)
isolate (source animal id): 271	2 (≈ 4.5 µM)
isolate (source animal id): 272	> 8
isolate (source animal id): 274	> 8
isolate (source animal id): 276	≤ 0.5
isolate (source animal id): 278	2 (≈ 4.5 µM)
isolate (source animal id): 280	> 8
isolate (source animal id): 281	2 (≈ 4.5 µM)
isolate (source animal id): 283	2 (≈ 4.5 µM)
isolate (source animal id): 288	4 (≈ 9 µM)
isolate (source animal id): 291	8 (≈ 18 µM)
isolate (source animal id): 292	2 (≈ 4.5 µM)
isolate (source animal id): 296	1 (≈ 2.25 µM)
isolate (source animal id): 306	2 (≈ 4.5 µM)
isolate (source animal id): 336	2 (≈ 4.5 µM)
isolate (source animal id): 337	2 (≈ 4.5 µM)
isolate (source animal id): 341	1 (≈ 2.25 µM)
